{
  "source": "patent US7652007B2",
  "about": "“Nitrogen-substituted hexahydropyrazino[1,2-A]pyrimidine-4,7-dione derivatives, processes for their preparation and their use as medicaments” (Sanofi-Aventis Deutschland GmbH, priority 2003, dated 2010)",
  "system": "female NMRI mice",
  "test": "Anorectic effect: cumulative condensed milk consumption of treated compared with control animals",
  "format": "in vivo",
  "details": "oral dose 50 mg/kg by gavage, female NMRI mice after withdrawal of food for 24 hours; for Reduction in the cumulative milk consumption as % of the control: compared with vehicle-treated control animals; for cumulative milk consumption of the treated animals: condensed milk offered 30 minutes after administration, consumption determined for 7 hours",
  "description": "The anorectic effect was tested on female NMRI mice. After withdrawal of food for 24 hours, the test product was administered by gavage. The animals were housed singly with free access to drinking water and were offered condensed milk 30 minutes after administration of the product. The condensed milk consumption was determined every half hour for 7 hours, and the general wellbeing of the animals was observed. The measured milk consumption was compared with the vehicle-treated control animals.",
  "data": [
    {"smiles": "CC(C)N1CC2N(C(=O)C(N(C)C)CN2S(=O)(=O)c2ccc(Cl)cc2Cl)C(Cc2ccc(Cl)cc2)C1=O", "note": "(stereo not shown) [Example 5, 6-(4-Chlorobenzyl)-1-(2,4-dichlorobenzenesulfonyl)-3-dimethylamino-8-isopropylhexahydropyrazino[1,2-a]pyrimidine-4,7-dione]", "values": [
      {"measurement": "Reduction in the cumulative milk consumption as % of the control", "value": "31 % of the control"},
      {"measurement": "cumulative milk consumption of the treated animals", "value": "5/2.4 ml"}
    ]},
    {"smiles": "CC(C)N1CC2N(C(=O)C(NS(C)(=O)=O)CN2S(=O)(=O)c2ccc(Cl)cc2Cl)C(Cc2ccc(Cl)cc2)C1=O", "note": "(stereo not shown) [Example 9, N-[6-(4-Chlorobenzyl)-1-(2,4-dichlorobenzenesulfonyl)-8-isopropyl-4,7-dioxooctahydropyrazino[1,2-a]pyrimidin-3-yl]methanesulfonamide]", "values": [
      {"measurement": "Reduction in the cumulative milk consumption as % of the control", "value": "47 % of the control"},
      {"measurement": "cumulative milk consumption of the treated animals", "value": "5/2.06 ml"}
    ]}
  ]
}
